Earlier results as cited in patent US6964946B1, “Oral pharmaceutical compositions containing taxanes and methods of treatment employing the same” (Baker Norton Pharmaceuticals, Inc., priority 1995, dated 2005).
“Also recorded” adds a separate entry of the source.

CC(=O)O[C@H]1C(=O)[C@@]2(C)[C@H]([C@H](OC(=O)c3ccccc3)[C@]3(O)C[C@H](OC(=O)[C@H](O)[C@@H](NC(=O)c4ccccc4)c4ccccc4)C(C)=C1C3(C)C)[C@]1(OC(C)=O)CO[C@@H]1C[C@@H]2O [Paclitaxel, paclitaxel]
level at which inhibition of tubulin disassembly occurs (tubulin): about 0.1 μM; also recorded: about 85 ng/ml | level at which inhibition of protein isoprenylation occurs (protein isoprenylation): about 0.03 μM; also recorded: about 25 ng/ml
